US20250171414A1, “COMPOUND SERVING AS MASP-2 INHIBITOR, PHARMACEUTICAL COMPOSITION, PREPARATION METHOD THEREFOR, AND USE THEREOF” (WUHAN CREATERNA SCIENCE AND TECHNOLOGY CO., LTD., priority 2022, published 2025)
Read-outs that look alike come from different tables or passages of the source.

What was measured:
[1] = tested on: lectin pathway (MBL) in human serum; assay: Inhibition of activity of lectin pathway (MBL) in human serum (WIESLAB Complement System MBL Pathway kit); assay type: biochemical; conditions: 1% human serum
Procedure: The inhibition of the activity of the lectin pathway (MBL) in human serum by compounds was detected using a WIESLAB® Complement System MBL Pathway kit (SVAR, COMPLMP320). Test compounds were each serially diluted in a buffer (Diluent MP), and 1% human serum was incubated with the diluted compound solution for 15 min at room temperature. 100 μL of the mixture was added to a microplate and incubated at 37° C. for 60 min. The liquid in the wells was discarded, and the microplate was washed three times with a washing solution. A Conjugate antibody solution was added at 100 μL/well, and the resulting mixture was incubated for 30 min at 25° C. The liquid in the wells was discarded, and the microplate was washed three times with a washing solution; a substrate solution was added at 100 μL/well, and the resulting mixture was incubated for 30 min at 25° C.; the terminator was added at 50 μL/well, and the absorbance at 405 nm was detected within 30 min by using a microplate reader.

[2] = target: human α-thrombin (Homo sapiens (Human), UniProt P00734); assay: Inhibition of thrombin, fluorescent peptide substrate Boc-VPR-AMC; assay type: biochemical
Procedure: For thrombin assay, a fluorescent peptide substrate (Boc-VPR-AMC (R&D Systems)) was used and reacted in a buffer containing 20 mM Hepes (pH 7.4), 140 mM NaCl, and 0.1% Tween 20 at room temperature. Assay parameters were adjusted to make the assay linearly related to time, enzyme, and substrate concentration.
The assay method for thrombin is as follows. Test compounds were each serially diluted with a buffer, and then 10 μL of compound solution was transferred to an assay plate. A buffer was added to the assay plate at 10 μL/well, and then a thrombin (human α-thrombin (BioPharm Lab.)) solution was added at 15 μL/well. A Boc-VPR-AMC substrate solution was added at 15 μL/well, and the resulting mixture was incubated for 60 min at 25° C. A terminating solution (0.1 M acetic acid) was added at 15 μL/well, and detection was performed within 30 min by using a SpectraMax i3x microplate reader.

[3] = In vivo pharmacokinetic study in SD rats; conditions: clear
Procedure: After adaptive feeding, the SPF SD rats were each subjected to a single administration of 1 mg/kg or 3 mg/kg of the compound of the present disclosure intragastrically or by tail vein bolus injection. Plasma was collected at specific time points after administration, and the concentration of the compound in plasma was detected by LC-MS/MS (AB Sciex Qtrap 4500).

[4] = Sprague-Dawley (SD), rat, plasma, 1 mg/kg, IV, not fasting
[5] = Sprague-Dawley (SD), rat, plasma, 1 mg/kg, IV, not fasting, read-out: Cmax
[6] = Sprague-Dawley (SD), rat, plasma, 1 mg/kg, PO, fasting
[7] = Sprague-Dawley (SD), rat, plasma, 1 mg/kg, PO, fasting, read-out: Cmax

Row | AUClast ([3]; 1 mg/kg, IV, not fasting) [ng·h/mL] | Cmax ([3]; 1 mg/kg, IV, not fasting) [ng/mL] | T1/2 ([3]; 1 mg/kg, IV, not fasting) [h] | Compound | IC50 [1] [nM] | IC50 [2] [nM] | further results
1 | 54837 ± 1386 | 7297 ± 154 | 31.1 ± 1.27 | C[C@H](NC(=O)[C@H]1C[C@H](Cc2ccc(F)cc2)CN1)C(=O)NC1CCc2nc(N)ccc21 (stereo partly drawn) [Compound L001, (2R,4S)—N-((2S)-1-((2-amino-6,7-dihydro-5H-cyclopenta[b]pyridin-5-yl)amino)-1-oxopropan-2-yl)-4-(4-fluorobenzyl) pyrrolidine-2-carboxamide] | 2.67 | > 50000 | AUClast ([3]; 1 mg/kg, PO, fasting): 9822 ± 108 ng·h/mL; Cmax ([3]; 1 mg/kg, PO, fasting): 1483 ± 41.0 ng/mL; T1/2 ([3]; 1 mg/kg, PO, fasting): 10.1 h
2 | 299766 ± 11465 | 23267 ± 1538 | 42.4 ± 3.40 | C[C@H](NC(=O)[C@H]1C[C@H](Cc2ccc(F)cc2)CN1)C(=O)N[C@@H]1CCc2nc(N)ccc21 [Compound L001-IS-01, (2R,4S)—N—((S)-1-(((R)-2-amino-6,7-dihydro-5H-cyclopenta[b]pyridin-5-yl)amino)-1-oxopropan-2-yl)-4-(4-fluorobenzyl) pyrrolidine-2-carboxamide] | 0.52 | 27400 | AUClast ([3]; 3 mg/kg, PO, fasting): 188265 ± 20044 ng·h/mL; Cmax ([3]; 3 mg/kg, PO, fasting): 6070 ± 914 ng/mL; T1/2 ([3]; 3 mg/kg, PO, fasting): 43.9 ± 8.44 h
3 | – | – | – | C[C@H](NC(=O)[C@H]1C[C@H](Cc2ccc(-c3ccccc3)cc2)CN1)C(=O)NC1CCc2nc(N)ccc21 (stereo partly drawn) [Compound L002, (2R,4S)-4-([1,1′-biphenyl]-4-ylmethyl)-N-((2S)-1-((2-amino-6,7-dihydro-5H-cyclopenta[b]pyridin-5-yl)amino)-1-oxopropan-2-yl) pyrrolidine-2-carboxamide] | 2.48 | > 50000 | –
4 | – | – | – | Nc1ccc2c(n1)CCC2NC(=O)[C@@H]1CCN1C(=O)[C@H]1C[C@H](Cc2ccc(-c3ccccc3)cc2)CN1 (stereo partly drawn) [Compound L027, (2S)-1-(2R,4S)-4-([1,1′-biphenyl]-4-(4-methyl)pyrrolidine-2-carbonyl)-N-(2-amino-6,7-dihydro-5H-cyclopenta[b]pyridin-5-yl) azetidine-2-carboxamide] | 1.43 | 11900 | –
5 | – | – | – | Nc1ccc2c(n1)CCC2NC(=O)[C@@H]1CCCN1C(=O)[C@H]1C[C@H](Cc2ccc(-c3ccccc3)cc2)CN1 (stereo partly drawn) [Compound L028, (2S)-1-(2R,4S)-4-([1,1′-biphenyl]-4-(4-ylmethyl)pyrrolidine-2-carbonyl)-N-(2-amino-6,7-dihydro-5H-cyclopenta[b]pyridin-5-yl) pyrrolidine-2-carboxamide] | 4.09 | 16600 | –
6 | – | – | – | Nc1ccc2c(n1)CCC2NC(=O)[C@@H]1CCN1C(=O)[C@H]1C[C@H](Cc2ccc(F)cc2)CN1 (stereo partly drawn) [Compound L030, (2S)—N-(2-amino-6,7-dihydro-5H-cyclopenta[b]pyridin-5-yl)-1-((2R,4S)-4-(4-fluorobenzyl)pyrrolidine-2-carbonyl) azetidine-2-carboxamide] | 1.85 | 10300 | –
7 | – | – | – | C[C@H](NC(=O)[C@H]1C=C(c2cccc(F)c2)CCN1)C(=O)N[C@@H]1CCc2nc(N)ccc21 [Compound L083, (R)—N—((S)-1-(((R)-2-amino-6,7-dihydro-5H-cyclopenta[b]pyridin-5-yl)amino)-1-oxopropan-2-yl)-4-(3-fluorophenyl)-1,2,5,6-tetrahydropyridine-2-carboxamide] | 10.6 | – | AUC(0-t) [3, 4]: 16400 ± 936 ng·h/mL; half-life [3, 4]: 2.71 ± 0.23 h; Cmax [3, 5]: 18000 ± 850 ng/mL; AUC(0-t) [3, 6]: 3360 ± 778 ng·h/mL; half-life [3, 6]: 2.97 ± 0.07 h; Cmax [3, 7]: 1090 ± 295 ng/mL
8 | – | – | – | C[C@H](NC(=O)[C@H]1C=C(c2cccc(F)c2F)CCN1)C(=O)N[C@@H]1CCc2nc(N)ccc21 [Compound L084, (R)—N—((S)-1-(((R)-2-amino-6,7-dihydro-5H-cyclopenta[b]pyridin-5-yl)amino)-1-oxopropan-2-yl)-4-(2,3-difluorophenyl)-1,2,5,6-tetrahydropyridine-2-carboxamide] | 13.3 | – | AUC(0-t) [3, 4]: 26000 ± 1480 ng·h/mL; half-life [3, 4]: 3.68 ± 0.22 h; Cmax [3, 5]: 18200 ± 929 ng/mL; AUC(0-t) [3, 6]: 6880 ± 1430 ng·h/mL; half-life [3, 6]: 3.09 ± 0.05 h; Cmax [3, 7]: 2140 ± 664 ng/mL

Row | Compound | AUClast ([3]; 1 mg/kg, IV, not fasting) [ng·h/mL] | Cmax ([3]; 1 mg/kg, IV, not fasting) [ng/mL] | T1/2 ([3]; 1 mg/kg, IV, not fasting) [h] | IC50 [1] [nM] | IC50 [2] [nM] | further results
9 | (2R)—N-((2S)-1-((2-amino-6,7-dihydro-5H-cyclopenta[b]pyridin-5-yl)amino)-1-oxopropan-2-yl)-4-phenyl-1,2,3,6-tetrahydropyridine-2-carboxamide [Compound L023-IS-02] | 21567 ± 2996 | 17400 ± 1026 | 3.93 ± 0.18 | 3.36 | – | AUClast ([3]; 3 mg/kg, PO, fasting): 17996 ± 2579 ng·h/mL; Cmax ([3]; 3 mg/kg, PO, fasting): 4340 ± 162 ng/mL; T1/2 ([3]; 3 mg/kg, PO, fasting): 4.20 ± 0.54 h
